Data as given in patent US11331364B2, “Use for JNK inhibitor molecules for treatment of various diseases” (Xigen Inflammation Ltd., priority 2014, dated 2022).
Read-outs that look alike come from different tables or passages of the source. Square brackets hold non-standard residues; d marks the D form. Peptide text beside a SMILES is read from it.

Key:
hJNK1 = molecular target: T1, hJNK1 (Homo sapiens, UniProt P45983); test: hJNK1 | IC50
T1 construct: His; purchased Upstate 14-327
Text: (§1) Table printed on a drawing sheet, Fig. 4
Head of the field: hJNK1 | IC50
(§2) The patent's description of the figure: FIG. 4: Table illustrating the inhibitory efficacy of several JNK inhibitors according to the present invention, which are fusion proteins of a JNK inhibitory (poly-)peptide sequence and a transporter sequence. Given are the IC50 values in the nM range, the respective standard error of the mean (SEM) and the number of experiments performed (n).
(§3) First copying reader's note: The sheet prints no unit for IC50 (the description says nM range); decimal commas are used, except for three IC50 cells printed with a point (3820.81, 5340.33, 8130.86).
Where the first naming reader finds the target: head: hJNK1 | IC50

hJNK2 = hJNK2 (Homo sapiens, UniProt P45984); test: hJNK2 | IC50
Sequence of hJNK2 (P45984 whole entry, looked up): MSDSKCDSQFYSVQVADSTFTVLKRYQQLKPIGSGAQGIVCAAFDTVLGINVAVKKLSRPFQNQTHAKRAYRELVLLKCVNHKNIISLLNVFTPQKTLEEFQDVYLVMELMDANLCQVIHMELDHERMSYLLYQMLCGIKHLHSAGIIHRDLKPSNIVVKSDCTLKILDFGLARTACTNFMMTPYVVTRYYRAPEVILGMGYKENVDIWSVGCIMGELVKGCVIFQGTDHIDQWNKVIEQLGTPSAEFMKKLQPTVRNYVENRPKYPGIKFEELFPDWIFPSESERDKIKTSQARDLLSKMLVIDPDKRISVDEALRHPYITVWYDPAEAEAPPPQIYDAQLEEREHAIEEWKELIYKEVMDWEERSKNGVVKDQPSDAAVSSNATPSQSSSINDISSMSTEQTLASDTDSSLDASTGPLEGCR
Text: as §1
Head of the field: hJNK2 | IC50
as §2, §3
Where the first naming reader finds the target: head: hJNK2 | IC50

hJNK3 = hJNK3 (Homo sapiens, UniProt P53779); test: hJNK3 | IC50
Sequence of hJNK3 (P53779 whole entry, looked up): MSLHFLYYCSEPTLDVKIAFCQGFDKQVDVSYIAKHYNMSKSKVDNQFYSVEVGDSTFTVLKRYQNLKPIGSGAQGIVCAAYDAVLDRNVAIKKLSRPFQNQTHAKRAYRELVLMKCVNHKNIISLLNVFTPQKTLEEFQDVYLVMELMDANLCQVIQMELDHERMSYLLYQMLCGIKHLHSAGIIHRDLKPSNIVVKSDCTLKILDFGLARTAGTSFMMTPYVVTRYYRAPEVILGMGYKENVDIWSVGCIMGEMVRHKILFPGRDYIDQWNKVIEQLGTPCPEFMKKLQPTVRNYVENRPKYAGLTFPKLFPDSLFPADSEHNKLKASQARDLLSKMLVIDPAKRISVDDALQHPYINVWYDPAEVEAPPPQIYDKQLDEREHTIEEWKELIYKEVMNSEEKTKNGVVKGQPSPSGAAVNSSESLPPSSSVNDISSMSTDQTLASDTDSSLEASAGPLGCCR
Text: as §1
Head of the field: hJNK3 | IC50
as §2, §3
Where the first naming reader finds the target: head: hJNK3 | IC50

T1 sequence (P45983 whole entry, looked up): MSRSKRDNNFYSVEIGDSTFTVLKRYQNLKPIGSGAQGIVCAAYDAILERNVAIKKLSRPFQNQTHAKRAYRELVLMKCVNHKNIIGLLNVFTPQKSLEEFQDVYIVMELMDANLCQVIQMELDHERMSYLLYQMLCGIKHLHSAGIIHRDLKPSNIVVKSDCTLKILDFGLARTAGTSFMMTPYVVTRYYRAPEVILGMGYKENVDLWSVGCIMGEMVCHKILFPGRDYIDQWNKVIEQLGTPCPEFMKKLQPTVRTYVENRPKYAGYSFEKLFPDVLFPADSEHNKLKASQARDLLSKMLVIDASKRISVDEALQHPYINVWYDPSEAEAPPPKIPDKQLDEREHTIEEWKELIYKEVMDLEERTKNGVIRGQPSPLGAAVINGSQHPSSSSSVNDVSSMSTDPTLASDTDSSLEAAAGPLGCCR

Compound	IC50 (hJNK1; read-out: hJNK1 | IC50)	IC50 (hJNK2; read-out: hJNK2 | IC50)	IC50 (hJNK3; read-out: hJNK3 | IC50)	IC50 (hJNK1)	IC50 (hJNK2)	IC50 (hJNK3)
CC(C)C[C@H](NC(=O)[C@H](C)NC(=O)[C@H](CCCCN)NC(=O)[C@H](CCCNC(=N)N)NC(=O)[C@H](CCCCN)NC(=O)CNC(=O)[C@@H](CCCNC(=N)N)NC(=O)[C@H](CCCNC(=N)N)NC(=O)[C@H](CCCNC(=N)N)NC(=O)[C@H](CCC(N)=O)NC(=O)[C@@H](CCCNC(=N)N)NC(=O)[C@H](CCCNC(=N)N)NC(=O)[C@H](CCCCN)NC(=O)[C@H](CCCCN)NC(=O)[C@H](N)CCCNC(=N)N)C(=O)N[C@H](CCCNC(=N)N)C(=O)N[C@@H](CC(C)C)C(=O)N[C@H](Cc1ccccc1)C(N)=O [SEQ ID NO: 189, rKKRrQRRrGKRKALrLf] (H-[dR]KKR[dR]QRR[dR]GKRKAL[dR]L[dF]-NH2)	–	–	–	22300 nM	176 nM	128 nM
CC(C)C[C@H](NC(=O)[C@H](CC(N)=O)NC(=O)[C@H](CC(C)C)NC(=O)[C@@H](NC(=O)[C@@H](NC(=O)[C@@H]1CCCN1C(=O)[C@H](CCCNC(=N)N)NC(=O)[C@H](CCCCN)NC(=O)[C@@H]1CCCN1C(=O)[C@@H]1CCCN1C(=O)[C@H](CCCNC(=N)N)NC(=O)[C@H](CCCNC(=N)N)NC(=O)[C@H](CCCNC(=N)N)NC(=O)[C@H](CCC(N)=O)NC(=O)[C@H](CCCNC(=N)N)NC(=O)[C@H](CCCNC(=N)N)NC(=O)[C@H](CCCCN)NC(=O)[C@H](CCCCN)NC(=O)[C@H](CCCNC(=N)N)NC(=O)CN)[C@@H](C)O)[C@@H](C)O)C(=O)N[C@@H](Cc1ccccc1)C(=O)N1CCC[C@H]1C(=O)N[C@@H](CCC(N)=O)C(=O)N[C@H](C(=O)N1CCC[C@H]1C(=O)N[C@@H](CCCNC(=N)N)C(=O)N[C@@H](CO)C(=O)N[C@@H](CCC(N)=O)C(=O)N[C@@H](CC(=O)O)C(N)=O)C(C)C [SEQ ID NO: 194] (H-GRKKRRQRRRPPKRPTTLNLFPQVPRSQD-NH2)	–	–	–	14 nM	12.7 nM	2.59 nM
CC(C)C[C@H](NC(=O)[C@H](CC(N)=O)NC(=O)[C@H](CC(C)C)NC(=O)[C@@H](NC(=O)[C@@H](NC(=O)[C@@H]1CCCN1C(=O)[C@H](CCCNC(=N)N)NC(=O)[C@H](CCCNC(=N)N)NC(=O)[C@H](CCCNC(=N)N)NC(=O)[C@H](CCC(N)=O)NC(=O)[C@H](CCCNC(=N)N)NC(=O)[C@H](CCCNC(=N)N)NC(=O)[C@H](CCCCN)NC(=O)[C@H](CCCCN)NC(=O)[C@H](CCCNC(=N)N)NC(=O)CN)[C@@H](C)O)[C@@H](C)O)C(=O)N[C@@H](Cc1ccccc1)C(=O)N1CCC[C@H]1C(=O)N[C@@H](CCC(N)=O)C(=O)N[C@H](C(=O)N1CCC[C@H]1C(=O)N[C@@H](CCCNC(=N)N)C(=O)N[C@@H](CO)C(=O)N[C@@H](CCC(N)=O)C(=O)N[C@@H](CC(=O)O)C(N)=O)C(C)C [SEQ ID NO: 195] (H-GRKKRRQRRRPTTLNLFPQVPRSQD-NH2)	–	–	–	10.8 nM	11.3 nM	4.92 nM
CC(C)C[C@H](NC(=O)[C@H](CC(N)=O)NC(=O)[C@H](CC(C)C)NC(=O)[C@@H](NC(=O)[C@@H](NC(=O)[C@@H]1CCCN1C(=O)[C@H](CCCNC(=N)N)NC(=O)[C@H](CCCCN)NC(=O)[C@@H]1CCCN1C(=O)[C@H](CCCNC(=N)N)NC(=O)[C@@H]1CCCN1C(=O)[C@@H]1CCCN1C(=O)[C@H](CCCNC(=N)N)NC(=O)[C@H](CCCNC(=N)N)NC(=O)[C@H](CCCNC(=N)N)NC(=O)[C@H](CCC(N)=O)NC(=O)[C@H](CCCNC(=N)N)NC(=O)[C@H](CCCNC(=N)N)NC(=O)[C@H](CCCCN)NC(=O)[C@H](CCCCN)NC(=O)[C@H](CCCNC(=N)N)NC(=O)CN)[C@@H](C)O)[C@@H](C)O)C(=O)N[C@@H](Cc1ccccc1)C(=O)N1CCC[C@H]1C(=O)N[C@@H](CCC(N)=O)C(=O)N[C@H](C(=O)N1CCC[C@H]1C(=O)N[C@@H](CCCNC(=N)N)C(=O)N[C@@H](CO)C(=O)N[C@@H](CCC(N)=O)C(=O)N[C@@H](CC(=O)O)C(N)=O)C(C)C [SEQ ID NO: 196] (H-GRKKRRQRRRPPRPKRPTTLNLFPQVPRSQD-NH2)	–	–	–	42.2 nM	8.43 nM	5.22 nM

Further lines, with some results ahead:

IC50 (hJNK1; read-out: hJNK1 | IC50)	IC50 (hJNK2; read-out: hJNK2 | IC50)	IC50 (hJNK3; read-out: hJNK3 | IC50)	Compound	IC50 (hJNK1)	IC50 (hJNK2)	IC50 (hJNK3)
2430 nM	206 nM	129 nM	CC(C)C[C@H](NC(=O)[C@H](CC(N)=O)NC(=O)[C@H](CC(C)C)NC(=O)[C@@H](NC(=O)[C@@H](C)NC(=O)[C@@H]1CCCN1C(=O)[C@H](CCCNC(=N)N)NC(=O)[C@H](CCCCN)NC(=O)[C@@H](CCCNC(=N)N)NC(=O)[C@H](CCCNC(=N)N)NC(=O)[C@H](CCC(N)=O)NC(=O)[C@@H](CCCNC(=N)N)NC(=O)[C@H](CCCNC(=N)N)NC(=O)[C@H](CCCCN)NC(=O)[C@H](CCCCN)NC(=O)[C@H](N)CCCNC(=N)N)[C@@H](C)O)C(=O)N[C@H](Cc1ccccc1)C(N)=O [SEQ ID NO: 184, rKKRrQRrKRPaTLNLf] (H-[dR]KKR[dR]QR[dR]KRP[dA]TLNL[dF]-NH2)	–	–	–
766 nM	72.1 nM	35.5 nM	CC(C)C[C@H](NC(=O)[C@H](CC(N)=O)NC(=O)[C@H](CC(C)C)NC(=O)[C@@H](NC(=O)[C@@H](CO)NC(=O)[C@@H]1CCCN1C(=O)[C@H](CCCNC(=N)N)NC(=O)[C@@H](CCCCN)NC(=O)[C@@H]1CCCN1C(=O)[C@H](CCCNC(=N)N)NC(=O)[C@@H](CCCNC(=N)N)NC(=O)[C@H](CCCNC(=N)N)NC(=O)[C@H](CCCNC(=N)N)NC(=O)[C@H](CCC(N)=O)NC(=O)[C@@H](CCCNC(=N)N)NC(=O)[C@H](CCCNC(=N)N)NC(=O)[C@H](CCCCN)NC(=O)[C@H](CCCCN)NC(=O)[C@H](N)CCCNC(=N)N)[C@@H](C)O)C(=O)N[C@H](Cc1ccccc1)C(N)=O [SEQ ID NO: 185, rKKRrQRRrRPkRPsTLNLf] (H-[dR]KKR[dR]QRR[dR]RP[dK]RP[dS]TLNL[dF]-NH2)	–	–	–
1020 nM	52.6 nM	44.2 nM	CC(C)C[C@H](NC(=O)[C@H](CC(N)=O)NC(=O)[C@H](CC(C)C)NC(=O)[C@@H](NC(=O)[C@@H](CCC(N)=O)NC(=O)[C@@H]1CCCN1C(=O)[C@H](CCCNC(=N)N)NC(=O)[C@@H](CCCCN)NC(=O)[C@@H]1CCCN1C(=O)[C@H](CCCNC(=N)N)NC(=O)[C@@H](CCCNC(=N)N)NC(=O)[C@H](CCCNC(=N)N)NC(=O)[C@H](CCCNC(=N)N)NC(=O)[C@H](CCC(N)=O)NC(=O)[C@@H](CCCNC(=N)N)NC(=O)[C@H](CCCNC(=N)N)NC(=O)[C@H](CCCCN)NC(=O)[C@H](CCCCN)NC(=O)[C@H](N)CCCNC(=N)N)[C@@H](C)O)C(=O)N[C@H](Cc1ccccc1)C(N)=O [SEQ ID NO: 186, rKKRrQRRrRPkRPqTLNLf] (H-[dR]KKR[dR]QRR[dR]RP[dK]RP[dQ]TLNL[dF]-NH2)	–	–	–
594 nM	37.9 nM	25.4 nM	CC(C)C[C@H](NC(=O)[C@H](CC(N)=O)NC(=O)[C@H](CC(C)C)NC(=O)[C@@H](NC(=O)[C@@H](CCCCN)NC(=O)[C@@H]1CCCN1C(=O)[C@H](CCCNC(=N)N)NC(=O)[C@@H](CCCCN)NC(=O)[C@@H]1CCCN1C(=O)[C@H](CCCNC(=N)N)NC(=O)[C@@H](CCCNC(=N)N)NC(=O)[C@H](CCCNC(=N)N)NC(=O)[C@H](CCCNC(=N)N)NC(=O)[C@H](CCC(N)=O)NC(=O)[C@@H](CCCNC(=N)N)NC(=O)[C@H](CCCNC(=N)N)NC(=O)[C@H](CCCCN)NC(=O)[C@H](CCCCN)NC(=O)[C@H](N)CCCNC(=N)N)[C@@H](C)O)C(=O)N[C@H](Cc1ccccc1)C(N)=O [SEQ ID NO: 187, rKKRrQRRrRPkRPkTLNLf] (H-[dR]KKR[dR]QRR[dR]RP[dK]RP[dK]TLNL[dF]-NH2)	–	–	–
1420 nM	98.1 nM	36.1 nM	CC(C)C[C@H](NC(=O)[C@H](C)NC(=O)[C@H](CCCCN)NC(=O)[C@H](CCCNC(=N)N)NC(=O)[C@H](CCCCN)NC(=O)CNC(=O)[C@@H](CCCNC(=N)N)NC(=O)[C@H](CCCNC(=N)N)NC(=O)[C@H](CCCNC(=N)N)NC(=O)[C@H](CCC(N)=O)NC(=O)[C@@H](CCCNC(=N)N)NC(=O)[C@H](CCCNC(=N)N)NC(=O)[C@H](CCCCN)NC(=O)[C@H](CCCCN)NC(=O)[C@H](N)CCCNC(=N)N)C(=O)N[C@@H](CCCCN)C(=O)N[C@@H](CC(C)C)C(=O)N[C@H](Cc1ccccc1)C(N)=O [SEQ ID NO: 188] (H-[dR]KKR[dR]QRR[dR]GKRKALKL[dF]-NH2)	–	–	–
8970 nM	148 nM	159 nM	CC(C)C[C@H](NC(=O)[C@H](C)NC(=O)[C@H](CCCCN)NC(=O)[C@H](CCCNC(=N)N)NC(=O)[C@@H](CCCNC(=N)N)NC(=O)[C@H](CCCNC(=N)N)NC(=O)[C@H](CCCNC(=N)N)NC(=O)[C@H](CCC(N)=O)NC(=O)[C@@H](CCCNC(=N)N)NC(=O)[C@H](CCCNC(=N)N)NC(=O)[C@H](CCCCN)NC(=O)[C@H](CCCCN)NC(=O)[C@H](N)CCCNC(=N)N)C(=O)N[C@H](CCCNC(=N)N)C(=O)N[C@@H](CC(C)C)C(=O)N[C@H](Cc1ccccc1)C(N)=O [SEQ ID NO: 190, rKKRrQRRrRKALrLf] (H-[dR]KKR[dR]QRR[dR]RKAL[dR]L[dF]-NH2)	–	–	–
